Assay results published in patent publication US11685732B2, “MYST family histone acetyltransferase inhibitors” (Epizyme, Inc., priority 2017, dated 2023).
pIC50: −log10 of the molar value. Read-outs that look alike come from different tables or passages of the source.

Experiments:
KAT-5 = KAT-5 (Homo sapiens (Human), UniProt Q92993); experiment: KAT-5 biochemical inhibition assay (SAMDI mass spectrometry)
Outline: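 Acetylation of 1 μM peptide by 9 nM enzyme with 0.5 μM acetyl-CoA (final) was run 90 min at 25° C in Tris pH 8.0 buffer with DTT, after compound preincubation at 2% DMSO. Formic acid stopped the reaction, and product was quantified by SAMDI mass spectrometry to derive IC50.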

KAT-6A = KAT-6A (Homo sapiens (Human), UniProt Q92794); experiment: KAT-6A biochemical inhibition assay (SAMDI mass spectrometry)
Sequence of KAT-6A (Q92794 other isoform, or with tags, fused parts or gaps): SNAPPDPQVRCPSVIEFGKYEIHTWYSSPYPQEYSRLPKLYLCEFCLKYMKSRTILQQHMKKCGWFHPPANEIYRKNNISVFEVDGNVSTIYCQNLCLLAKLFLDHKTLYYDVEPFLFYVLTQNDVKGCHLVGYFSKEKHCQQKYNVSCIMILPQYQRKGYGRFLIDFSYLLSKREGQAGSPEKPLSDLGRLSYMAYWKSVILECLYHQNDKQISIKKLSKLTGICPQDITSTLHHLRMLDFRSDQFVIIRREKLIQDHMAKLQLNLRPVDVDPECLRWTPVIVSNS
Outline: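 IC50 values came from SAMDI time-of-flight mass spectrometry after formic acid quench (0.5% final). Acetylation ran 90 min at 25 °C with 1 μM acetyl coenzyme A and 1 μM peptide substrate, following compound pre-incubation with 12.5 nM KAT-6A in Tris buffer pH 8.0 containing DTT, 2% DMSO final.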

KAT-7 = KAT-7 (Homo sapiens (Human), UniProt O95251); experiment: KAT-7 biochemical inhibition assay (SAMDI mass spectrometry)
Sequence of KAT-7 (O95251 other isoform, or with tags, fused parts or gaps): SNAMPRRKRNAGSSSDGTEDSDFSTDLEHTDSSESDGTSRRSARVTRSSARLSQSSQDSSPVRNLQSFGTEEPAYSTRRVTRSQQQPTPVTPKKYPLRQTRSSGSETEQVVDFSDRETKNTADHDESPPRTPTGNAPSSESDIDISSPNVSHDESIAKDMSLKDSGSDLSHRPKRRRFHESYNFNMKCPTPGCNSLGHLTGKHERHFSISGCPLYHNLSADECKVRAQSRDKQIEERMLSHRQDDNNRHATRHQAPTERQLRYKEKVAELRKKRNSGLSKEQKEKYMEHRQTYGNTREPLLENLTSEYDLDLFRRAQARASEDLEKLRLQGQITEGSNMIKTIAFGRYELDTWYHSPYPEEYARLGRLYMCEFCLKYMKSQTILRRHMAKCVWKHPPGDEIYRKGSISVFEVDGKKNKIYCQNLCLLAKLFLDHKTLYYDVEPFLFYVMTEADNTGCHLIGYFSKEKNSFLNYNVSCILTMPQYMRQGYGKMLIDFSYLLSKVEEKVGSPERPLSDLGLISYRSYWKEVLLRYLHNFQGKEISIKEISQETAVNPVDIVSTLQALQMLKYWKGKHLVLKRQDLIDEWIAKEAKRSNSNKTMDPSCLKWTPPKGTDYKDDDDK
Outline: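 Read-out was SAMDI time-of-flight MS of formic acid-quenched reactions (0.5% final). Compound dilutions (2% DMSO final) were pre-incubated with 6 nM KAT-7 in 50 mM Tris pH 8.0 with 1 mM DTT, then given 1 μM peptide substrate and 2 μM acetyl-CoA for 120 min at 25 °C. IC50 values were derived.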

KAT-8 = KAT-8 (Homo sapiens (Human), UniProt Q9H7Z6); experiment: KAT-8 biochemical inhibition assay (SAMDI mass spectrometry)
Sequence of KAT-8 (Q9H7Z6 other isoform, or with tags, fused parts or gaps): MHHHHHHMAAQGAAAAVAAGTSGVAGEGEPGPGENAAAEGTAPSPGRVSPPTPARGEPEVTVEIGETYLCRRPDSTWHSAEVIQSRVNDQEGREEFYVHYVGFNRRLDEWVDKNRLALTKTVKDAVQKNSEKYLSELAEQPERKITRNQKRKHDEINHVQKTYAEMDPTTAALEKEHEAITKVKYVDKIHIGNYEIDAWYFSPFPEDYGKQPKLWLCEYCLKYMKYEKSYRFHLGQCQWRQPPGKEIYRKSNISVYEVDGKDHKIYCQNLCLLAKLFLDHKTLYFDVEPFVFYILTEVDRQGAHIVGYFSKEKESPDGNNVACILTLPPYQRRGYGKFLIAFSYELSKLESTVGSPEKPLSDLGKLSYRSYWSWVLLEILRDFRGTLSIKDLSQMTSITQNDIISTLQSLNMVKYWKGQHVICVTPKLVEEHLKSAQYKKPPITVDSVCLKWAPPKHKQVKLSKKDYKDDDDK
Outline: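 Acetylation of 1 μM peptide substrate with 5 μM acetyl-CoA by 12.5 nM enzyme, compound pre-incubated, 2% DMSO, Tris pH 8.0 buffer with DTT, 25 °C for 90 min. Quench with 0.5% formic acid; product read by SAMDI mass spectrometry to give IC50.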

Sequence of KAT-5 (Q92993 other isoform, or with tags, fused parts or gaps): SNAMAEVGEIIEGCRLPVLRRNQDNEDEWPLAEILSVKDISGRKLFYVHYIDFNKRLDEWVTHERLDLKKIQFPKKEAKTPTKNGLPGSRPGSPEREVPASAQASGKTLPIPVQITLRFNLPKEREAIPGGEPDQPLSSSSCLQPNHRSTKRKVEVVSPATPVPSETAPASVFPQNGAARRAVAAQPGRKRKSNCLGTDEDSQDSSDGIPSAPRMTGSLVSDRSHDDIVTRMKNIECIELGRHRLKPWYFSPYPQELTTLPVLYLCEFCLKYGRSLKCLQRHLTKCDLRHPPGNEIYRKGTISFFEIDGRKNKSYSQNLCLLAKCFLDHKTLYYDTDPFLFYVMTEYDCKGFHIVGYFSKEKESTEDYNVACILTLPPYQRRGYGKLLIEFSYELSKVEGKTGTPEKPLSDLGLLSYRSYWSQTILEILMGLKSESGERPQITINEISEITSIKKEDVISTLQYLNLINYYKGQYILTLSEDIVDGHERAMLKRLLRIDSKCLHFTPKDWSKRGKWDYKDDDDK

Compound | pIC50 (KAT-5; Table 6, comparative compounds) | pIC50 (KAT-6A; Table 6, comparative compounds) | pIC50 (KAT-7; Table 6, comparative compounds) | pIC50 (KAT-8; Table 6, comparative compounds) | pIC50 (KAT-5) | pIC50 (KAT-6A) | pIC50 (KAT-7) | pIC50 (KAT-8)
Cc1cc(-c2ccccc2)cc(C(=O)NNS(=O)(=O)CC2CCCN(C(=O)OC(C)(C)C)C2)c1F (single isomer, unassigned) [C, reference compound] | ≥ 5.00 | ≥ 5.00 | 4.30 to 5.00 | < 4.00 |  |  |  | 
COc1ccc(CNC(=O)NC2CCC(CS(=O)(=O)NNC(=O)c3cc(-c4cn(C)cn4)cc(Cl)c3F)CC2)cc1 (stereo not drawn) [Compound I-177] |  |  |  |  | > 5.00 | > 5.00 | > 5.00 | > 5.00
Cn1cnc(-c2cc(Cl)c(F)c(C(=O)NNS(=O)(=O)c3cn(C)cn3)c2)c1 [Compound I-237] |  |  |  |  | 4.30 to 5.00 | > 5.00 | > 5.00 | 4.30 to 5.00
CCn1cnc(-c2cc(C)c(F)c(C(=O)NNS(=O)(=O)C3CCCCC3)c2)c1 [Compound I-126] |  |  |  |  | > 5.00 | 4.30 to 5.00 | > 5.00 | < 4.00
Cn1cnc(-c2cc(Cl)c(F)c(C(=O)NNS(=O)(=O)CC3CCCC(NC(=O)c4ccccn4)C3)c2)c1 (stereo not drawn) [Compound I-234] |  |  |  |  | > 5.00 | > 5.00 | > 5.00 | 4.30 to 5.00
Cc1ccnc(-c2cc(Cl)c(F)c(C(=O)NNS(=O)(=O)CC3CCOCC3)c2)c1 [Compound I-17] |  |  |  |  | > 5.00 | > 5.00 | > 5.00 | < 4.00
COCCOc1ccc(S(=O)(=O)NNC(=O)c2cc(-c3cn(C)cn3)cc(Cl)c2F)cc1 [Compound I-369] |  |  |  |  | > 5.00 | 4.30 to 5.00 | > 5.00 | 4.30 to 5.00
COc1cccc(S(=O)(=O)NNC(=O)c2cc(-c3cn(C)cn3)cc(Cl)c2F)c1 [Compound I-322] |  |  |  |  | > 5.00 | > 5.00 | > 5.00 | 4.30 to 5.00
Cn1ccc(-c2cc(Cl)c(F)c(C(=O)NNS(=O)(=O)CC3CCOCC3)c2)n1 [Compound I-6] |  |  |  |  | 4.30 to 5.00 | > 5.00 | 4.30 to 5.00 | < 4.00
Cn1cnc(-c2cc(Cl)c(F)c(C(=O)NNS(=O)(=O)c3cnn(CCOCc4ccccc4)c3)c2)c1 [Compound I-361] |  |  |  |  | 4.30 to 5.00 | 4.30 to 5.00 | > 5.00 | 4.30 to 5.00
Cc1cn(-c2cc(Cl)c(F)c(C(=O)NNS(=O)(=O)CC3CCOCC3)c2)nn1 [Compound I-50] |  |  |  |  | > 5.00 | > 5.00 | 4.30 to 5.00 | < 4.00
COc1ccc(CNC(=O)N2CCCC(CS(=O)(=O)NNC(=O)c3cc(-c4cn(C)cn4)cc(Cl)c3F)C2)cc1 (stereo not drawn) [Compound I-214] |  |  |  |  | > 5.00 | > 5.00 | > 5.00 | 4.30 to 5.00
COCCn1cnc(-c2cc(C)c(F)c(C(=O)NNS(=O)(=O)C3CCOCC3)c2)c1 [Compound I-138] |  |  |  |  | 4.30 to 5.00 | < 4.00 | 4.00 to 4.30 | < 4.00
COc1ccc(CN(C)C(=O)N2CCCC(CS(=O)(=O)NNC(=O)c3cc(-c4cn(C)cn4)cc(Cl)c3F)C2)cc1 (stereo not drawn) [Compound I-171] |  |  |  |  | > 5.00 | > 5.00 | > 5.00 | 4.30 to 5.00
O=C(NNS(=O)(=O)CC1CCOCC1)c1cc(-n2cncn2)cc(Cl)c1F [Compound I-165] |  |  |  |  | 4.30 to 5.00 | 4.30 to 5.00 | 4.30 to 5.00 | 4.30 to 5.00
Cn1cnc(-c2cc(Cl)c(F)c(C(=O)NNS(=O)(=O)CC3CCCC(NC(=O)Cc4cccnc4)C3)c2)c1 (stereo not drawn) [Compound I-243] |  |  |  |  | > 5.00 | > 5.00 | > 5.00 | 4.30 to 5.00
CCOc1ccc(S(=O)(=O)NNC(=O)c2cc(-c3cn(C)cn3)cc(Cl)c2F)cc1 [Compound I-380] |  |  |  |  | > 5.00 | > 5.00 | > 5.00 | 4.30 to 5.00
Cn1cnc(-c2cc(Cl)c(F)c(C(=O)NNS(=O)(=O)Cc3cccnc3)c2)c1 [Compound I-282] |  |  |  |  | > 5.00 | 4.30 to 5.00 | > 5.00 | 4.30 to 5.00
Cc1ncn(C)c1-c1cc(Cl)c(F)c(C(=O)NNS(=O)(=O)CC2CCCCC2)c1 [Compound I-45] |  |  |  |  | < 4.00 | < 4.00 | 4.00 to 4.30 | < 4.00

Further lines, results first:

pIC50 (KAT-5; Table 6, comparative compounds) | pIC50 (KAT-6A; Table 6, comparative compounds) | pIC50 (KAT-7; Table 6, comparative compounds) | pIC50 (KAT-8; Table 6, comparative compounds) | pIC50 (KAT-5) | pIC50 (KAT-6A) | pIC50 (KAT-7) | pIC50 (KAT-8) | Compound
 |  |  |  | 4.30 to 5.00 | 4.30 to 5.00 | > 5.00 | 4.30 to 5.00 | Cn1cnc(-c2cc(Cl)c(F)c(C(=O)NNS(=O)(=O)CC3CN(S(C)(=O)=O)C3)c2)c1 [Compound I-220]
 |  |  |  | > 5.00 | 4.30 to 5.00 | > 5.00 | 4.30 to 5.00 | CCNC(=O)N[C@H]1C[C@H](CS(=O)(=O)NNC(=O)c2cc(-c3cn(C)cn3)cc(Cl)c2F)C1 [Compound I-112]
 |  |  |  | > 5.00 | > 5.00 | > 5.00 | 4.30 to 5.00 | CO[C@H]1CC[C@@H](CS(=O)(=O)NNC(=O)c2cc(-c3cn(C)cn3)cc(Cl)c2F)CC1 [Compound I-353]
 |  |  |  | > 5.00 | > 5.00 | > 5.00 | 4.30 to 5.00 | CN(C)C(=O)N(C)[C@H]1CC[C@@H](CS(=O)(=O)NNC(=O)c2cc(-c3cn(C)cn3)cc(Cl)c2F)CC1 [Compound I-365]
 |  |  |  | 4.30 to 5.00 | 4.30 to 5.00 | > 5.00 | 4.30 to 5.00 | CN1CCC(CS(=O)(=O)NNC(=O)c2cc(-c3cn(C)cn3)cc(Cl)c2F)C1 (stereo not drawn) [Compound I-79]
 |  |  |  | > 5.00 | > 5.00 | > 5.00 | 4.30 to 5.00 | Cn1cnc(-c2cc(Cl)c(F)c(C(=O)NNS(=O)(=O)CC3CCC(NC(=O)N4CCCCC4)C3)c2)c1 (stereo not drawn) [Compound I-345]
 |  |  |  | > 5.00 | > 5.00 | > 5.00 | 4.30 to 5.00 | Cn1cnc(-c2cc(Cl)c(F)c(C(=O)NNS(=O)(=O)CC3CCC(F)(F)CC3)c2)c1 [Compound I-262]
 |  |  |  | 4.30 to 5.00 | 4.30 to 5.00 | > 5.00 | 4.30 to 5.00 | CC(=O)N1CCC(CS(=O)(=O)NNC(=O)c2cc(-c3cn(C)cn3)cc(Cl)c2F)C1 (stereo not drawn) [Compound I-57]
 |  |  |  | > 5.00 | > 5.00 | > 5.00 | 4.30 to 5.00 | Cn1cnc(-c2cc(Cl)c(F)c(C(=O)NNS(=O)(=O)CC3CCC(NC(=O)N4CCCC4)C3)c2)c1 (stereo not drawn) [Compound I-346]
 |  |  |  | 4.30 to 5.00 | > 5.00 | > 5.00 | 4.30 to 5.00 | Cn1cnc(-c2cc(Cl)c(F)c(C(=O)NNS(=O)(=O)CC3CN(C(=O)N4CCC4)C3)c2)c1 [Compound I-169]
 |  |  |  | > 5.00 | > 5.00 | > 5.00 | 4.30 to 5.00 | Cn1cnc(-c2cc(Cl)c(F)c(C(=O)NNS(=O)(=O)CC3CCCC(NC(N)=O)C3)c2)c1 (stereo not drawn) [Compound I-115]
 |  |  |  | > 5.00 | > 5.00 | > 5.00 | 4.30 to 5.00 | CN(C)C(=O)NC1CCC(CS(=O)(=O)NNC(=O)c2cc(-c3cn(C)cn3)cc(Cl)c2F)C1 (stereo not drawn) [Compound I-336]
 |  |  |  | > 5.00 | > 5.00 | > 5.00 | 4.00 to 4.30 | Cn1cnc(-c2cc(Cl)c(F)c(C(=O)NNS(=O)(=O)CC3CCCN(S(C)(=O)=O)C3)c2)c1 (stereo not drawn) [Compound I-53]
 |  |  |  | > 5.00 | > 5.00 | > 5.00 | 4.30 to 5.00 | CC(=O)N[C@H]1CC[C@@H](CS(=O)(=O)NNC(=O)c2cc(-c3cn(C)cn3)cc(Cl)c2F)CC1 [Compound I-184]
 |  |  |  | 4.30 to 5.00 | > 5.00 | > 5.00 | 4.30 to 5.00 | CCS(=O)(=O)N1CC(CS(=O)(=O)NNC(=O)c2cc(-c3cn(C)cn3)cc(Cl)c2F)C1 [Compound I-164]
 |  |  |  | > 5.00 | > 5.00 | > 5.00 | 4.30 to 5.00 | CC(C)C(=O)NC1CCCC(CS(=O)(=O)NNC(=O)c2cc(-c3cn(C)cn3)cc(Cl)c2F)C1 (stereo not drawn) [Compound I-206]
 |  |  |  | > 5.00 | > 5.00 | > 5.00 | 4.30 to 5.00 | CCNC(=O)N[C@H]1CCC[C@H](CS(=O)(=O)NNC(=O)c2cc(-c3cn(C)cn3)cc(Cl)c2F)C1 [Compound I-348]
 |  |  |  | > 5.00 | > 5.00 | > 5.00 | 4.30 to 5.00 | Cn1cnc(-c2cc(Cl)c(F)c(C(=O)NNS(=O)(=O)CC3CCCN(S(=O)(=O)C4CC4)C3)c2)c1 (stereo not drawn) [Compound I-86]
 |  |  |  | 4.30 to 5.00 | 4.30 to 5.00 | > 5.00 | 4.30 to 5.00 | Cn1cnc(-c2cc(Cl)c(F)c(C(=O)NNS(=O)(=O)C[C@H]3CCNC3)c2)c1 [Compound I-121]
 |  |  |  | 4.00 to 4.30 | 4.00 to 4.30 | > 5.00 | < 4.00 | Cn1cnc(-c2cc(Cl)c(F)c(C(=O)NNS(=O)(=O)C3CCC3)c2)c1 [Compound I-12]
 |  |  |  | > 5.00 | > 5.00 | > 5.00 | 4.00 to 4.30 | COC1CCC(CS(=O)(=O)NNC(=O)c2cc(-c3cn(C)cn3)cc(Cl)c2F)C1 (stereo not drawn) [Compound I-387]
 |  |  |  | 4.30 to 5.00 | 4.30 to 5.00 | > 5.00 | 4.30 to 5.00 | CC(=O)N1C[C@H](CS(=O)(=O)NNC(=O)c2cc(-c3cn(C)cn3)cc(Cl)c2F)[C@@H](C)C1 [Compound I-283]
 |  |  |  | > 5.00 | > 5.00 | > 5.00 | 4.30 to 5.00 | COCCNC(=O)N1CCC(CS(=O)(=O)NNC(=O)c2cc(-c3cn(C)cn3)cc(Cl)c2F)C1 (stereo not drawn) [Compound I-190]
